These results are taken from article PMC11364775, “Ion occupancy of the selectivity filter controls opening of a cytoplasmic gate in the K2P channel TALK-2” (Nature Communications, 2024).

The IC50 is the point on the concentration scale where inhibition reaches its midpoint. The low end stands for higher potency, the high end for lower potency.

Positions count from the first letter of the chain named. Entries after “also recorded” stand apart in the source; their conditions may differ. Where two headings read alike, the source gives them in different places.

For test [1], the target named is T1, WT TALK-2 channels (Homo sapiens, UniProt Q96T54).
T1 sequence (Q96T54 1-332): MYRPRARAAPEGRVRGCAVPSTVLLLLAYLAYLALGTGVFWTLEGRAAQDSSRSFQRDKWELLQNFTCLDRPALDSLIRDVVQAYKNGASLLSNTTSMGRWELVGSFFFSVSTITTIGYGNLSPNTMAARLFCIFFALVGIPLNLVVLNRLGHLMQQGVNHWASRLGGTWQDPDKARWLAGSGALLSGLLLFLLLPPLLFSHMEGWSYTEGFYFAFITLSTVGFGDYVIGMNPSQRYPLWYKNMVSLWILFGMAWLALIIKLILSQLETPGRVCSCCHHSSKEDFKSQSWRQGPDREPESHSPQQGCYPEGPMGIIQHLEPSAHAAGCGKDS
The experiment in a line: Pore blocker inhibition (dose-response, residual currents) in inside-out patches at +40 mV. The class given is cell-based. Also on record: expressed in transfected cells; host or cells: Xenopus laevis oocytes (cRNA injection), excised inside-out patches. The note with it: for IC50: IC50 of TPenA inhibition.
Procedure: Data shown are the mean ± s.e.m and the number (n) of independent experiments and repeats of representative measurements with similar results is indicated in the figure.
Electrophysiological recordings: Excised patch measurements in inside-out configuration under voltage-clamp conditions were performed at room temperature (22 – 24 °C). Patch pipettes were made from thick-walled borosilicate glass GB 200TF-8P (Science Products, Germany), had resistances of 0.2–0.5 MΩ (tip diameter of 10 - 25 µm) and filled with a pipette solution (in mM): 120 KCl, 10 HEPES and 3.6 CaCl2 (pH 7.0 - 8.5 adjusted with KOH/HCl) or 120 KCl, 10 AMPSO and 3.6 CaCl2 (pH 9.0 - 10.5 adjusted with KOH/HCl). Intracellular bath solutions and compounds were applied to the cytoplasmic side of excised patches for the various K^+ channels via a gravity flow multi-barrel pipette system. Intracellular solution had the following composition (in mM): 120 KCl, 10 HEPES, 2 EGTA and 1 Pyrophosphate (pH adjusted with KOH/HCl). In other intracellular bath solutions, K^+ was replaced by Rb^+ (pH 7.4 adjusted with RbOH/HCl). Currents were recorded with an EPC10 amplifier (HEKA electronics, Germany) and sampled at 10 kHz or higher and filtered with 3 kHz (-3 dB) or higher as appropriate for sampling rate.
Data analysis and statistics were done using Fitmaster (HEKA electronics, version: v2x73.5, Germany), Microsoft Excel 2021 (Microsoft Corporation, USA), and Igor Pro 9 software (WaveMetrics Inc., USA). Recorded currents were analyzed from stable membrane patches at a voltage defined in the respective figure legend or with a voltage protocol as indicated in the respective figure. […] Percentage inhibition or residual currents upon blocker application for a ligand (drug or bioactive lipid) was calculated from stable currents of excised membrane patches using the following Eqs. 2 and 3:2 %inhibition=1−Iinhibited/Ibasal*100 3 Residual current=100−%inhibition where Iinhibited refers to the stable current level recorded in the presence of a given concentration of a drug or bioactive lipid and Ibasal to the measured current before ligand application.

In test [2] the target is T1, WT TALK-2 channels. Nature of the test: Tail current deactivation kinetics with pore blocker (inside-out patch). The class given is cell-based. Also on record: expressed in transfected cells; host or cells: Xenopus laevis oocytes (cRNA injection), excised inside-out patches. The source says:
In voltage-gated K^+ (Kv) channels, the closing of the lower gate can be prevented by the binding of blockers such as tetra-pentyl-ammonium (TPenA) in the pore cavity and, thereby, causing a slowing of the deactivation kinetics which is known as the ‘foot in the door’ effect[33],[34]. To test for such a mechanism in TALK-2, we activated the channels with a voltage step to +100 mV in the presence of intracellular Rb^+ followed by a repolarization step to -80 mV (to induce tail currents) with and without the K2P channel pore blocker TPenA. […] We hypothesize, that the two gates are strongly coupled and, therefore, opening the SF gate by depolarization should also open the lower gate, which then consequently would allow blocker (like TPenA) binding within the pore cavity (Fig. 5a cartoon). Upon repolarization, however, the bound TPenA blocker obstructs closure of the lower gate and thereby, hinders the SF from closure/inactivation (gate coupling).

Test [3] concerns the target T2, WT TALK-2 channels (human K2P17.1) (Homo sapiens, UniProt Q96T54).
T2 sequence (Q96T54 1-332): T1 sequence (Q96T54 1-332)
Also on record: expressed in transfected cells; host or cells: Xenopus laevis oocytes (cRNA injection), excised inside-out patches; method as in PMID 34928298. The note with it: cited from earlier work.

In test [4] the target is T3, TALK-2 L264A mutant channels (Homo sapiens, UniProt Q96T54, L264A).
T3 sequence (Q96T54 1-332 L264A): T1 sequence (Q96T54 1-332) with L264A
Procedure: Oocytes were surgically removed from anesthetized adult females, treated with type II collagenase (Sigma-Aldrich/Merck, Germany) and manually defolliculated. 50 nl of a solution containing the K^+ channel specific cRNA was injected into Dumont stage V - VI oocytes and subsequently incubated at 17 °C in a solution containing (mM): 54 NaCl, 30 KCl, 2.4 NaHCO3, 0.82 MgSO4 x 7 H2O, 0.41 CaCl2, 0.33 Ca(NO3)2 x 4 H2O and 7.5 TRIS (pH 7.4 adjusted with NaOH/HCl) for 1–7 days before use. Electrophysiological recordings: Excised patch measurements in inside-out configuration under voltage-clamp conditions were performed at room temperature (22 – 24 °C). […] Currents were recorded with an EPC10 amplifier (HEKA electronics, Germany) and sampled at 10 kHz or higher and filtered with 3 kHz (-3 dB) or higher as appropriate for sampling rate.
Recorded currents were analyzed from stable membrane patches at a voltage defined in the respective figure legend or with a voltage protocol as indicated in the respective figure. The fold activation (fold change in (tail) current amplitude) of a ligand (drug or bioactive lipid) was calculated from Eq. 1:1 Fold activationFA=Iactivated/Ibasal where Iactivated represents the stable current level in the presence of a given concentration of a respective ligand and Ibasal the measured current before ligand application. […]

The target of a further test is WT TREK-1 channels (Rattus norvegicus, UniProt Q920B6). The note with it: TREK-1 WT.
Sequence of WT TREK-1 channels (Q920B6 whole entry): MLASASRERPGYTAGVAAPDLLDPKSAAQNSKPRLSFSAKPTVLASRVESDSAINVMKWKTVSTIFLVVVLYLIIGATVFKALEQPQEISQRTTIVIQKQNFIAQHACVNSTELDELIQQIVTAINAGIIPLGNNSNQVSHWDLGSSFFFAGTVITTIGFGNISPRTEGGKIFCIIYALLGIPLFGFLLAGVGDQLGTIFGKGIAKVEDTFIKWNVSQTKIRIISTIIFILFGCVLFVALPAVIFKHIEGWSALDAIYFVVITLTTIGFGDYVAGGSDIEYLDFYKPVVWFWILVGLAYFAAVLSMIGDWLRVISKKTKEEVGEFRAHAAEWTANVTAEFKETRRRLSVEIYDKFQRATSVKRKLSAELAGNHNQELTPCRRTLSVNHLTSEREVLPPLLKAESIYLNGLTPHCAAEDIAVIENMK

Procedure for WT TREK-1 channels: Data shown are the mean ± s.e.m and the number (n) of repeats of the representative measurements with similar results is indicated in the figure.
Oocytes were surgically removed from anesthetized adult females, treated with type II collagenase (Sigma-Aldrich/Merck, Germany) and manually defolliculated. 50 nl of a solution containing the K^+ channel specific cRNA was injected into Dumont stage V - VI oocytes and subsequently incubated at 17 °C in a solution containing (mM): 54 NaCl, 30 KCl, 2.4 NaHCO3, 0.82 MgSO4 x 7 H2O, 0.41 CaCl2, 0.33 Ca(NO3)2 x 4 H2O and 7.5 TRIS (pH 7.4 adjusted with NaOH/HCl) for 1–7 days before use. Electrophysiological recordings: Excised patch measurements in inside-out configuration under voltage-clamp conditions were performed at room temperature (22 – 24 °C). Patch pipettes were made from thick-walled borosilicate glass GB 200TF-8P (Science Products, Germany), had resistances of 0.2–0.5 MΩ (tip diameter of 10 - 25 µm) and filled with a pipette solution (in mM): 120 KCl, 10 HEPES and 3.6 CaCl2 (pH 7.0 - 8.5 adjusted with KOH/HCl) or 120 KCl, 10 AMPSO and 3.6 CaCl2 (pH 9.0 - 10.5 adjusted with KOH/HCl). Intracellular bath solutions and compounds were applied to the cytoplasmic side of excised patches for the various K^+ channels via a gravity flow multi-barrel pipette system. Intracellular solution had the following composition (in mM): 120 KCl, 10 HEPES, 2 EGTA and 1 Pyrophosphate (pH adjusted with KOH/HCl). In other intracellular bath solutions, K^+ was replaced by Rb^+ (pH 7.4 adjusted with RbOH/HCl). Currents were recorded with an EPC10 amplifier (HEKA electronics, Germany) and sampled at 10 kHz or higher and filtered with 3 kHz (-3 dB) or higher as appropriate for sampling rate.

Consider `CCCCC[N+](CCCCC)(CCCCC)CCCCC` [TPenA, Tetra-pentyl-ammonium chloride], for which the IC50 at WT TALK-2 channels [1] (0.2 mM 2-APB, n = 7, legend of Fig. 5e) was determined as 778 ± 116 µM; on WT TALK-2 channels [1] (0.5 mM 2-APB, n = 5, legend of Fig. 5e), 215 ± 28 µM; against WT TALK-2 channels [1] (1.0 mM 2-APB, n = 16, legend of Fig. 5e), 54 ± 10 µM; at WT TALK-2 channels [1] (pre-activated with 0.2 mM 2-APB, +40 mV) it was 1110 ± 411 µM; at WT TALK-2 channels [1] (pre-activated with 0.5 mM 2-APB, +40 mV), 225 ± 25 µM. The Normalized currents was found to be 1.00 at WT TALK-2 channels [1] (TALK-2 WT + 0.2 mM 2-APB, 1 µM TPenA); 0.87 at WT TALK-2 channels [1] (TALK-2 WT + 0.2 mM 2-APB, 10 µM TPenA); 0.81 at WT TALK-2 channels [1] (TALK-2 WT + 0.2 mM 2-APB, 100 µM TPenA); 0.47 at WT TALK-2 channels [1] (TALK-2 WT + 0.2 mM 2-APB, 1000 µM TPenA); 0.15 at WT TALK-2 channels [1] (TALK-2 WT + 0.2 mM 2-APB, 10000 µM TPenA); 1.02 at WT TALK-2 channels [1] (TALK-2 WT + 0.5 mM 2-APB, 1 µM TPenA). Moreover, the Normalized currents at WT TALK-2 channels [1] (TALK-2 WT + 0.5 mM 2-APB, 10 µM TPenA) stood at 0.89; at WT TALK-2 channels [1] (TALK-2 WT + 0.5 mM 2-APB, 100 µM TPenA) it was 0.63; at WT TALK-2 channels [1] (TALK-2 WT + 0.5 mM 2-APB, 1000 µM TPenA), 0.25; at WT TALK-2 channels [1] (TALK-2 WT + 0.5 mM 2-APB, 10000 µM TPenA), 0.08; on WT TALK-2 channels [1] (TALK-2 WT + 1.0 mM 2-APB, 1 µM TPenA), 1.00; on WT TALK-2 channels [1] (TALK-2 WT + 1.0 mM 2-APB, 10 µM TPenA) it was 0.87. Besides, the Normalized currents on WT TALK-2 channels [1] (TALK-2 WT + 1.0 mM 2-APB, 100 µM TPenA) was found to be 0.33; on WT TALK-2 channels [1] (TALK-2 WT + 1.0 mM 2-APB, 1000 µM TPenA), 0.07; on WT TALK-2 channels [1] (TALK-2 WT + 1.0 mM 2-APB, 2000 µM TPenA) it was 0.06; on WT TALK-2 channels [1] (TALK-2 WT + 1.0 mM 2-APB, 5000 µM TPenA) it was 0.06; at WT TALK-2 channels [1] (TALK-2 WT + 1.0 mM 2-APB, 10000 µM TPenA), 0.01; on WT TALK-2 channels [1] (TALK-2 WT, 1 µM TPenA), 0.98. Moreover, the Normalized currents on WT TALK-2 channels [1] (TALK-2 WT, 10 µM TPenA) is reported as 0.97; at WT TALK-2 channels [1] (TALK-2 WT, 100 µM TPenA) it was 0.95; on WT TALK-2 channels [1] (TALK-2 WT, 1000 µM TPenA), 0.95; at WT TALK-2 channels [1] (TALK-2 WT, 5000 µM TPenA), 0.98; at WT TALK-2 channels [1] (TALK-2 WT, 10000 µM TPenA), 0.99. The “Residual currents with 1 mM TPenA” value on WT TALK-2 channels [1] (TALK-2 WT unstimulated, +40 mV) is 101.31%; on WT TALK-2 channels [1] (TALK-2 WT, 0.2 mM 2-APB, +40 mV), 47.38%; at WT TALK-2 channels [1] (TALK-2 WT, 0.5 mM 2-APB, +40 mV) it was 25.47%; at WT TALK-2 channels [1] (TALK-2 WT, 1.0 mM 2-APB, +40 mV), 6.78%. In addition, the “TPenA block in the basal state” value at WT TALK-2 channels [1] (basal state (low PO), 1.0 mM TPenA) is recorded as “hardly any TPenA block”. On WT TALK-2 channels [2] (2-APB-activated TALK-2 (1.0 mM 2-APB, 1.0 mM TPenA)), the “effect of TPenA inhibition on tail current kinetics” value is “no effect; also recorded: little effect”. For the same compound, at WT TALK-2 channels [2] (intracellular Rb+ with 1.0 mM TPenA, step to +100 mV, repolarization to -80 mV), the “deactivation time constant τ of tail currents” value was 7.4 ± 0.4 ms. The “TPenA block of the tail current amplitudes” value at WT TALK-2 channels [2] (intracellular Rb+, tail currents at -80 mV) was ~ 50%. In addition, the “slowing of the deactivation kinetics” value at WT TALK-2 channels [2] (with ~50 % TPenA block, intracellular Rb+) is listed as ~ 2.5 fold.
In the case of `CCCCCCCC/C=C\CCCCCCCC(=O)SCCNC(=O)CCNC(=O)[C@H](O)C(C)(C)COP(=O)(O)OP(=O)(O)OC[C@H]1O[C@@H](n2cnc3c(N)ncnc32)[C@H](O)[C@@H]1OP(=O)(O)O` [oleoyl-CoA], the “increase of channel activity” value in test [3] is “more than 100 fold”.
As for `NCCOB(c1ccccc1)c1ccccc1` [2-APB, 2-aminoethoxydiphenyl borate], the “Fold activation 1 mM 2-APB” value in test [4] (1 mM) is listed as 2.78 fold. Also, the “further current increase by 2-APB” value in test [4] (1.0 mM 2-APB) is “only a minor further current increase”. The “Rb+-induced current” value at WT TREK-1 channels (0.001 mM 2-APB) is 2.62 nA; on WT TREK-1 channels (0.01 mM 2-APB) it was 2.54 nA; at WT TREK-1 channels (0.1 mM 2-APB), 1.29 nA; at WT TREK-1 channels (0.5 mM 2-APB), -0.03 nA; at WT TREK-1 channels (1.0 mM 2-APB), -0.44 nA; at WT TREK-1 channels (2.0 mM 2-APB), 0.00 nA.
